Values of other authors as cited in US20130096316A1, “Novel Method for Preparation of Bisnorcymerine and Salts Thereof” (QR PHARMA, INC., priority 2011, published 2013).

Biological target: human BChE (Homo sapiens, UniProt P06276)
Details: ratio of the AChE IC50 to the BChE IC50; cited from Yu et al., 1999

Sequence of human BChE (P06276 29-602): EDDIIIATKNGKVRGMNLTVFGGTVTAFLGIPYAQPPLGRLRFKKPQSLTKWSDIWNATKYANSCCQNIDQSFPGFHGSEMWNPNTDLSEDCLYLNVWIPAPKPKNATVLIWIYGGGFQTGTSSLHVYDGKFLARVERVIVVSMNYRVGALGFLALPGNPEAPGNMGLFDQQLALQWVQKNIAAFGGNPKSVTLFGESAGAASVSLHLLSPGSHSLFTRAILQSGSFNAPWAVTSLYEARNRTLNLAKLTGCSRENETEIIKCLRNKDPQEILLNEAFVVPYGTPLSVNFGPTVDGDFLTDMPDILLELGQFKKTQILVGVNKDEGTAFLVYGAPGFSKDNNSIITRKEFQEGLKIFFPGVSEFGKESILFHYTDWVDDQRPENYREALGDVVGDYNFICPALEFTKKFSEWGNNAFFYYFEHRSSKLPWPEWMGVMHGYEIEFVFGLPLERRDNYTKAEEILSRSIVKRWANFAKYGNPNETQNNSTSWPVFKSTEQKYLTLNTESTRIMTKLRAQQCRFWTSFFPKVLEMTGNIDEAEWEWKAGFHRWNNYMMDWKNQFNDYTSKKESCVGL

For CC(C)c1ccc(NC(=O)Oc2ccc3c(c2)[C@]2(C)CCNC2N3)cc1 (stereo partly drawn) [Compound 1, (3aS)-3a-methyl-1,2,3,3a,8,8a-hexahydropyrrolo[2,3-b]indol-5-yl (4-isopropylphenyl)carbamate], the “selectivity for inhibition of BChE as compared to AChE” value is given as 110 fold.
